What was measured:
Settings in all cases: exposure time 48 h
[1] = tested on: Caenorhabditis elegans N2; assay: AC50 for larval growth inhibition (Hill fit); higher = less potent
Outline: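 C. elegans N2 L1 larvae, synchronised and plated at 50 per well in 96-well plates, were exposed for 48 h at 20°C to 0.5–200 µM chemical in K-medium with killed OP50 and 1% DMSO. Log-transformed extinction from a COPAS Biosort served as worm size, averaged per well. Wells containing at least 10 worms entered the fit. A constrained Hill fit by weighted genetic-algorithm regression yielded the AC50, censored when out of range.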

[2] = tested on: Caenorhabditis elegans N2; assay: lowest effective concentration for larval growth inhibition (size below effect threshold); higher = less potent
Outline: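 Each well of a 96-well plate received 50 C. elegans N2 L1 larvae, which grew for 48 h at 20°C in K-medium containing killed bacteria, 1% DMSO and the chemical at 0.5, 1, 5, 10, 50, 100 or 200 µM. A Biosort recorded the extinction of every worm as its size, and these readings were log-transformed and averaged per well. The lowest effective concentration is defined as the first dose at which the plate-adjusted mean size falls below the threshold and stays below it at all higher doses; that threshold is 5.665.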

[3] = tested on: Caenorhabditis elegans N2; assay: mean nematode size ln(EXT) after 48 h, plate-adjusted (DMSO control set to 6) (ln(EXT), control-adjusted); higher = larger nematodes / less growth inhibition
Outline: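 A growth model removed debris from Biosort extinction readings taken on each worm. These worms were synchronised C. elegans N2 L1 larvae, 50 per well in 4–6 wells per treatment, grown for 48 h at 20°C in K-medium with killed OP50, 1% DMSO and 0.5–200 µM chemical. Readings were natural-logged and averaged by well to give mean size. On each plate, the vehicle control mean was subtracted and 6 was added.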

Structure (SMILES): CS(=O)(=O)c1cc(C(F)(F)F)ccc1C(=O)c1cnoc1C1CC1 [Isoxaflutole]
- AC50 for larval growth inhibition [1]: > 200 µM
- lowest effective concentration [2]: 200 µM
- mean nematode size ln(EXT) (ln) ([3]; 0.5 µM): 6.11
- mean nematode size ln(EXT) (ln) ([3]; 1 µM): 6.29
- mean nematode size ln(EXT) (ln) ([3]; 5 µM): 6.22
- mean nematode size ln(EXT) (ln) ([3]; 10 µM): 6.31
- mean nematode size ln(EXT) (ln) ([3]; 50 µM): 6.07
- mean nematode size ln(EXT) (ln) ([3]; 100 µM): 6.15
- mean nematode size ln(EXT) (ln) ([3]; 200 µM): 5.61

Structure (SMILES): CCCCSP(=O)(SCCCC)SCCCC [Tribufos]
- AC50 for larval growth inhibition [1]: 5.32 µM
- lowest effective concentration [2]: 5 µM
- mean nematode size ln(EXT) (ln) ([3]; 0.5 µM): 5.81
- mean nematode size ln(EXT) (ln) ([3]; 1 µM): 5.73
- mean nematode size ln(EXT) (ln) ([3]; 5 µM): 5.58
- mean nematode size ln(EXT) (ln) ([3]; 10 µM): 3.53
- mean nematode size ln(EXT) (ln) ([3]; 50 µM): 3.25
- mean nematode size ln(EXT) (ln) ([3]; 100 µM): 3.33
- mean nematode size ln(EXT) (ln) ([3]; 200 µM): 4.2

Structure (SMILES): CCCCC(CC)CN1C(=O)C2C3C=CC(C3)C2C1=O (mixture of isomers) [MGK]
- AC50 for larval growth inhibition [1]: 185 µM
- lowest effective concentration [2]: 200 µM
- mean nematode size ln(EXT) (ln) ([3]; 0.5 µM): 5.99
- mean nematode size ln(EXT) (ln) ([3]; 1 µM): 5.99
- mean nematode size ln(EXT) (ln) ([3]; 5 µM): 5.97
- mean nematode size ln(EXT) (ln) ([3]; 10 µM): 5.98
- mean nematode size ln(EXT) (ln) ([3]; 50 µM): 5.81
- mean nematode size ln(EXT) (ln) ([3]; 100 µM): 5.84
- mean nematode size ln(EXT) (ln) ([3]; 200 µM): 4.3

Structure (SMILES): O=C(O)C(O)C(O)C(=O)O (stereo not drawn) [Tartaric acid]
- AC50 for larval growth inhibition [1]: > 200 µM
- lowest effective concentration [2]: 200 µM
- mean nematode size ln(EXT) (ln) ([3]; 0.5 µM): 5.84
- mean nematode size ln(EXT) (ln) ([3]; 1 µM): 5.89
- mean nematode size ln(EXT) (ln) ([3]; 5 µM): 5.79
- mean nematode size ln(EXT) (ln) ([3]; 10 µM): 5.79
- mean nematode size ln(EXT) (ln) ([3]; 50 µM): 5.9
- mean nematode size ln(EXT) (ln) ([3]; 100 µM): 5.82
- mean nematode size ln(EXT) (ln) ([3]; 200 µM): 5.17

Structure (SMILES): O=[N+]([O-])c1cc(C(F)(F)F)c(Cl)c([N+](=O)[O-])c1Nc1ncc(C(F)(F)F)cc1Cl [Fluazinam]
- AC50 for larval growth inhibition [1]: 31.6 µM
- lowest effective concentration [2]: 50 µM
- mean nematode size ln(EXT) (ln) ([3]; 0.5 µM): 6.05
- mean nematode size ln(EXT) (ln) ([3]; 1 µM): 6.17
- mean nematode size ln(EXT) (ln) ([3]; 5 µM): 5.81
- mean nematode size ln(EXT) (ln) ([3]; 10 µM): 6.15
- mean nematode size ln(EXT) (ln) ([3]; 50 µM): 3.61
- mean nematode size ln(EXT) (ln) ([3]; 100 µM): 3.85
- mean nematode size ln(EXT) (ln) ([3]; 200 µM): 3.23

Structure (SMILES): CN(C)NC(=O)CCC(=O)O [Daminozide]
- AC50 for larval growth inhibition [1]: > 200 µM
- lowest effective concentration [2]: 200 µM
- mean nematode size ln(EXT) (ln) ([3]; 0.5 µM): 6.43
- mean nematode size ln(EXT) (ln) ([3]; 1 µM): 6.07
- mean nematode size ln(EXT) (ln) ([3]; 5 µM): 6.34
- mean nematode size ln(EXT) (ln) ([3]; 10 µM): 6.17
- mean nematode size ln(EXT) (ln) ([3]; 50 µM): 6
- mean nematode size ln(EXT) (ln) ([3]; 100 µM): 6.01
- mean nematode size ln(EXT) (ln) ([3]; 200 µM): 5.44

Structure (SMILES): N#CSCSc1nc2ccccc2s1 [TCMTB]
- AC50 for larval growth inhibition [1]: 34 µM
- lowest effective concentration [2]: 50 µM
- mean nematode size ln(EXT) (ln) ([3]; 0.5 µM): 5.93
- mean nematode size ln(EXT) (ln) ([3]; 1 µM): 5.84
- mean nematode size ln(EXT) (ln) ([3]; 5 µM): 5.81
- mean nematode size ln(EXT) (ln) ([3]; 10 µM): 5.78
- mean nematode size ln(EXT) (ln) ([3]; 50 µM): 4.12
- mean nematode size ln(EXT) (ln) ([3]; 100 µM): 3.48
- mean nematode size ln(EXT) (ln) ([3]; 200 µM): 3.4

Structure (SMILES): CCOC(=O)COc1ccc2c(c1)CC(NCC(O)c1cccc(Cl)c1)CC2 (stereo not drawn)
- AC50 for larval growth inhibition [1]: > 200 µM
- lowest effective concentration [2]: 200 µM
- mean nematode size ln(EXT) (ln) ([3]; 0.5 µM): 5.79
- mean nematode size ln(EXT) (ln) ([3]; 1 µM): 5.81
- mean nematode size ln(EXT) (ln) ([3]; 5 µM): 5.87
- mean nematode size ln(EXT) (ln) ([3]; 10 µM): 5.81
- mean nematode size ln(EXT) (ln) ([3]; 50 µM): 5.76
- mean nematode size ln(EXT) (ln) ([3]; 100 µM): 5.75
- mean nematode size ln(EXT) (ln) ([3]; 200 µM): 5.5

Structure (SMILES): Nc1ccc2ccccc2c1 [2-Naphthylamine]
- AC50 for larval growth inhibition [1]: > 200 µM
- lowest effective concentration [2]: 200 µM
- mean nematode size ln(EXT) (ln) ([3]; 0.5 µM): 6
- mean nematode size ln(EXT) (ln) ([3]; 1 µM): 5.76
- mean nematode size ln(EXT) (ln) ([3]; 5 µM): 5.94
- mean nematode size ln(EXT) (ln) ([3]; 10 µM): 5.72
- mean nematode size ln(EXT) (ln) ([3]; 50 µM): 5.71
- mean nematode size ln(EXT) (ln) ([3]; 100 µM): 5.89
- mean nematode size ln(EXT) (ln) ([3]; 200 µM): 5.51

Structure (SMILES): CC(C)=CC1C(C(=O)OCN2C(=O)C3=C(CCCC3)C2=O)C1(C)C (stereo not drawn) [Tetramethrin]
- AC50 for larval growth inhibition [1]: 78.6 µM
- lowest effective concentration [2]: 100 µM
- mean nematode size ln(EXT) (ln) ([3]; 0.5 µM): 5.94
- mean nematode size ln(EXT) (ln) ([3]; 1 µM): 5.96
- mean nematode size ln(EXT) (ln) ([3]; 5 µM): 6.03
- mean nematode size ln(EXT) (ln) ([3]; 10 µM): 6.01
- mean nematode size ln(EXT) (ln) ([3]; 50 µM): 5.76
- mean nematode size ln(EXT) (ln) ([3]; 100 µM): 4.97
- mean nematode size ln(EXT) (ln) ([3]; 200 µM): 4.57

Structure (SMILES): COc1nc(NC(C)C)nc(NC(C)C)n1 [Prometon]
- AC50 for larval growth inhibition [1]: > 200 µM
- lowest effective concentration [2]: 100 µM
- mean nematode size ln(EXT) (ln) ([3]; 0.5 µM): 5.72
- mean nematode size ln(EXT) (ln) ([3]; 1 µM): 5.83
- mean nematode size ln(EXT) (ln) ([3]; 5 µM): 5.84
- mean nematode size ln(EXT) (ln) ([3]; 10 µM): 5.75
- mean nematode size ln(EXT) (ln) ([3]; 50 µM): 5.87
- mean nematode size ln(EXT) (ln) ([3]; 100 µM): 5.61
- mean nematode size ln(EXT) (ln) ([3]; 200 µM): 5.53

Structure (SMILES): Clc1nc(Cl)nc(Nc2ccccc2Cl)n1 [Anilazine]
- AC50 for larval growth inhibition [1]: > 200 µM
- lowest effective concentration [2]: 200 µM
- mean nematode size ln(EXT) (ln) ([3]; 0.5 µM): 6.11
- mean nematode size ln(EXT) (ln) ([3]; 1 µM): 6.01
- mean nematode size ln(EXT) (ln) ([3]; 5 µM): 6.13
- mean nematode size ln(EXT) (ln) ([3]; 10 µM): 6.11
- mean nematode size ln(EXT) (ln) ([3]; 50 µM): 5.99
- mean nematode size ln(EXT) (ln) ([3]; 100 µM): 5.78
- mean nematode size ln(EXT) (ln) ([3]; 200 µM): 5

Structure (SMILES): C=CCC1=C(C)[C@@H](OC(=O)[C@@H]2[C@@H](C=C(C)C)C2(C)C)CC1=O [S-Bioallethrin]
- AC50 for larval growth inhibition [1]: > 200 µM
- lowest effective concentration [2]: 50 µM
- mean nematode size ln(EXT) (ln) ([3]; 0.5 µM): 5.65
- mean nematode size ln(EXT) (ln) ([3]; 1 µM): 5.78
- mean nematode size ln(EXT) (ln) ([3]; 5 µM): 5.76
- mean nematode size ln(EXT) (ln) ([3]; 10 µM): 5.76
- mean nematode size ln(EXT) (ln) ([3]; 50 µM): 5.48
- mean nematode size ln(EXT) (ln) ([3]; 100 µM): 5.62
- mean nematode size ln(EXT) (ln) ([3]; 200 µM): 5.39

Structure (SMILES): O=S(=O)(O)C(F)(F)C(F)(F)C(F)(F)C(F)(F)C(F)(F)C(F)(F)C(F)(F)C(F)(F)F [Perfluorooctane sulfonic acid]
- AC50 for larval growth inhibition [1]: 17.4 µM
- lowest effective concentration [2]: 5 µM
- mean nematode size ln(EXT) (ln) ([3]; 0.5 µM): 5.78
- mean nematode size ln(EXT) (ln) ([3]; 1 µM): 5.91
- mean nematode size ln(EXT) (ln) ([3]; 5 µM): 5.28
- mean nematode size ln(EXT) (ln) ([3]; 10 µM): 5.06
- mean nematode size ln(EXT) (ln) ([3]; 50 µM): 4.32
- mean nematode size ln(EXT) (ln) ([3]; 100 µM): 4.28
- mean nematode size ln(EXT) (ln) ([3]; 200 µM): 3.33

Structure (SMILES): CN(C)c1ccc(C(=C2C=CC(=[N+](C)C)C=C2)c2ccc(N(C)C)cc2)cc1 [Hexamethyl-p-rosaniline chloride]
- AC50 for larval growth inhibition [1]: < 0.5 µM
- lowest effective concentration [2]: ≤ 0.5 µM
- mean nematode size ln(EXT) (ln) ([3]; 0.5 µM): 4.79
- mean nematode size ln(EXT) (ln) ([3]; 1 µM): 4.53
- mean nematode size ln(EXT) (ln) ([3]; 5 µM): 4.01
- mean nematode size ln(EXT) (ln) ([3]; 10 µM): 3.85
- mean nematode size ln(EXT) (ln) ([3]; 50 µM): 3.66
- mean nematode size ln(EXT) (ln) ([3]; 100 µM): 4.08
- mean nematode size ln(EXT) (ln) ([3]; 200 µM): 4.02

Structure (SMILES): CC1(C(=O)Nc2ccc(O)c(Cl)c2Cl)CCCCC1 [Fenhexamid]
- AC50 for larval growth inhibition [1]: 112 µM
- lowest effective concentration [2]: 200 µM
- mean nematode size ln(EXT) (ln) ([3]; 0.5 µM): 5.86
- mean nematode size ln(EXT) (ln) ([3]; 1 µM): 5.87
- mean nematode size ln(EXT) (ln) ([3]; 5 µM): 5.88
- mean nematode size ln(EXT) (ln) ([3]; 10 µM): 5.96
- mean nematode size ln(EXT) (ln) ([3]; 50 µM): 6
- mean nematode size ln(EXT) (ln) ([3]; 100 µM): 5.86
- mean nematode size ln(EXT) (ln) ([3]; 200 µM): 4.71

Structure (SMILES): Cc1ncc(CO)c(CO)c1O [Pyridoxine]
- AC50 for larval growth inhibition [1]: > 200 µM
- lowest effective concentration [2]: 200 µM
- mean nematode size ln(EXT) (ln) ([3]; 0.5 µM): 5.84
- mean nematode size ln(EXT) (ln) ([3]; 1 µM): 5.88
- mean nematode size ln(EXT) (ln) ([3]; 5 µM): 5.86
- mean nematode size ln(EXT) (ln) ([3]; 10 µM): 5.83
- mean nematode size ln(EXT) (ln) ([3]; 50 µM): 5.87
- mean nematode size ln(EXT) (ln) ([3]; 100 µM): 5.92
- mean nematode size ln(EXT) (ln) ([3]; 200 µM): 5.63

— the supplement of paper PMC4858399
